Results from PubChem BioAssay AID2060332 (Molecular Pharmacology Branch, DTP, NCI, 2025).
Where “and” joins values, the source holds several entries; their conditions need not be identical. Identical values can stand only once.

System: LG0567-F671-PDC multi-cell spheroid viability
Assay: Anticancer human tumor LG0567-F671-PDC patient-derived lung adenocarcinoma cell line growth inhibition [IpAb]
Details: for viability, T/C: stronger effect = lower value
Text: Combinatorial screen of targeted agents with ipatasertib and abemaciclib in multi-cell type tumor spheroids
A high-throughput screen of multi-cell type tumor spheroids was designed to identify active combinations of targeted small molecules and ipatasertib or abemaciclib. Complex spheroids include a stromal component modeled by human endothelial cells (HUVEC) and fibroblasts modeled by human mesenchymal stem cells (MSCs). The concentration ranges selected for each drug and investigational agent were based upon clinically achievable concentrations if the clinical Cmax of the agent was known.
Compounds. The drugs and investigational agents: ipatasertib (NSC767898), abemaciclib(NSC768073), selumetinib (NSC741078), trametinib (758246), adavosertib (NSC754352), everolimus (NSC733504), sapanisertib (NSC764658), vemurafenib (NSC761431), venetoclax (NSC766270), copanlisib (NSC809693), apelisib (NSC765974), palbociblib (NSC758247), vemurafenib (NSC761431), dabrafenib (NSC764134), ravoxertinib (NSC781343), BMS-387032 (NSC767048), sotorasib (NSC818433), talazoparib (NSC767125) and afursertib (NSC778305), were obtained from the National Cancer Institute (NCI) Developmental Therapeutics Program Chemical Repository. The FDA-approved anticancer drug set is available from the NCI Developmental Therapeutics Program. […] The stock solutions were prepared in dimethyl sulfoxide (DMSO, Sigma-Aldrich, St. Louis, MO, cat. D2650) at 800-fold the tested concentration and stored at -70 degrees C prior to their use. All drugs and investigational agents were tested over a range starting from a high concentration at or near the clinical Cmax and decreasing in half-log increments. If the clinical Cmax for an agent had not been determined, the highest concentration tested was 10 microM.
NCI60 Cell Culture. NCI60 cell lines were obtained from the NCI Developmental Therapeutics Program Tumor Repository. For each lot of cells, the Repository performed Applied Biosystems AmpFLSTR Identifiler testing with PCR amplification to confirm consistency with the published Identifier STR profile for each cell line. Cells were kept in continuous culture for no more than 20 passages. The optimal seeding densities for each of the cell lines at each time point assessed were determined prior to performing the concentration response studies. Briefly, the NCI60 human tumor lines were grown as monolayers in RPMI 1640 medium supplemented with 10% FBS and 2 mmol/L L-glutamine.
An additional 9 lines were from the NCI60 cell line panel including MDA-MB-231 breast carcinoma, MDA-MB-468 breast carcinoma, MCF7 breast carcinoma, Hs578T breast carcinoma, MALME-3M melanoma, SK-MEL-2 melanoma, SK-OV-3 ovarian carcinoma, DU-145 prostate carcinoma, PC-3 prostate carcinoma, all cell lines along with major genetic alterations are listed on Table 2. Pooled donor human umbilical vein endothelial cells (HUVEC, Lonza, cat. CC-2519) and human mesenchymal stem cells (hMSC, Lonza, cat. PT-2501) were purchased from Lonza (Walkersville, MD).
PDMR cell lines were grown in complete medium (DC medium): Dulbecco's modified Eagle's medium (DMEM)/F12 supplemented with 5% fetal bovine serum (FBS), 2 mM L-glutamine, 100 U/mL penicillin and 100 µg/ml streptomycin, 0.4 µg/ml hydrocortisone, 10 ng/ml epidermal growth factor (EGF) recombinant human protein, 24 µg/mL adenine, and 0.1 mg/mL primocin. During culture from frozen stock vials, PDMR cells were cultured in the same medium containing 10 µM Y-27632 (see Table 3). The PDCs were cultured in complete DMEM/F12 media without 10 microM Y-27632 dihydrochloride for at least two passages prior to the screen. The pooled donor HUVEC and hMSC were cultured in endothelial cell growth medium 2 (PromoCell, Heidelberg, Germany, cat. C-22011) and mesenchymal stem cell growth medium 2 (PromoCell, cat. C-28009), respectively. For all experiments, HUVEC and hMSC were used at passages </=5.
[…]

[1] = compound alone, run of 06/01/2021
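Also: viability read after 7 days of drug exposure.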
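For viability, T/C in this document: 100% = DMSO vehicle control luminescence.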

With `C=CC(=O)N1CCN(c2nc(=O)n(-c3c(C)ccnc3C(C)C)c3nc(-c4c(O)cccc4F)c(F)cc23)C(C)C1` (stereo unspecified) the viability, T/C (compound 0.0316 µM) was 26.6% and 19.1%, the viability, T/C (compound 0.1 µM) was 18.9% and 20.1% and the viability, T/C (compound 0.316 µM) was 19.7% and 18.1%. The viability, T/C (compound 1 µM) was 18.6% and 17.6%, the viability, T/C (compound 3.16 µM) was 16% and 20.2% and the viability, T/C (compound 10 µM) was 20.3% and 18.5%. It also gave an IC50 (curve of compound) of under 31.6 nM.
`C=CCn1c(=O)c2cnc(Nc3ccc(N4CCN(C)CC4)cc3)nc2n1-c1cccc(C(C)(C)O)n1` was tested, and the viability, T/C (compound 0.0316 µM) was 101% and 104%, the viability, T/C (compound 0.1 µM) was 76.4% and 73.2% and the viability, T/C (compound 0.316 µM) was 46.1% and 54.2%. The viability, T/C (compound 1 µM) was 45.3% and 54%, the viability, T/C (compound 3.16 µM) was 37.1% and 57.6% and the viability, T/C (compound 10 µM) was 30.6% and 41.5%.
In the case of `CC(=O)c1c(C)c2cnc(Nc3ccc(N4CCNCC4)cn3)nc2n(C2CCCC2)c1=O`, the viability, T/C (compound 0.000949 µM) is reported as 95.7% and 102%, the viability, T/C (compound 0.003 µM) is reported as 78.4% and 87.8% and the viability, T/C (compound 0.00949 µM) is reported as 107% and 91.7%. The viability, T/C (compound 0.03 µM) was 68.7% and 76.1%, the viability, T/C (compound 0.0949 µM) was 91.7% and 72.5% and the viability, T/C (compound 0.3 µM) was 86.8% and 82.4%. It also gave an IC50 (curve of compound) of over 300 nM.
With `CC(C)(C)c1cnc(CSc2cnc(NC(=O)C3CCNCC3)s2)o1` the viability, T/C (compound 0.00949 µM) was 110% and 111%, the viability, T/C (compound 0.03 µM) was 113% and 95.4% and the viability, T/C (compound 0.0949 µM) was 97.6% and 73.8%. For the same molecule, the viability, T/C (compound 0.3 µM) was 6.76% and 3.49%, the viability, T/C (compound 0.949 µM) was 2.03% and 1.44% and the viability, T/C (compound 3 µM) was 0.9% and 0.89%. For the same molecule, the IC50 (curve of compound) was 173 nM and 140 nM.
`CC(C)NCC(C(=O)N1CCN(c2ncnc3c2C(C)CC3O)CC1)c1ccc(Cl)cc1` (stereo unspecified) was tested, and the viability, T/C (compound 0.316 µM) was 71.7% [middle of 13 runs], the viability, T/C (compound 10 µM) was 71.6% [middle of 13 runs] and the IC50 [1] was over 10000 nM.
For `CC(C)n1nc(-c2ccc3oc(N)nc3c2)c2c(N)ncnc21`, the viability, T/C (compound 0.000316 µM) was 108% and 95.6%, the viability, T/C (compound 0.001 µM) was 79.7% and 87.8% and the viability, T/C (compound 0.00316 µM) was 90.1% and 102%. The viability, T/C (compound 0.01 µM) was 64% and 55.8%, the viability, T/C (compound 0.0316 µM) was 78.1% and 50% and the viability, T/C (compound 0.1 µM) was 66.9% and 56.8%. It also gave an IC50 (curve of compound) of over 100 nM.
`CC1(C)CCC(CN2CCN(c3ccc(C(=O)NS(=O)(=O)c4ccc(NCC5CCOCC5)c([N+](=O)[O-])c4)c(Oc4cnc5[nH]ccc5c4)c3)CC2)=C(c2ccc(Cl)cc2)C1` was tested, and the viability, T/C (compound 0.0316 µM) was 96.3% and 101%, the viability, T/C (compound 0.1 µM) was 87.4% and 110% and the viability, T/C (compound 0.316 µM) was 86.8% and 105%. For the same molecule, the viability, T/C (compound 1 µM) was 112% and 113%, the viability, T/C (compound 3.16 µM) was 145% and 143% and the viability, T/C (compound 10 µM) was 25.2% and 23%. For the same molecule, the IC50 (curve of compound) was 7020 nM and 7120 nM.
With `CCCS(=O)(=O)Nc1ccc(F)c(C(=O)c2c[nH]c3ncc(-c4ccc(Cl)cc4)cc23)c1F` the viability, T/C (compound 0.0316 µM) was 101% and 97.6%, the viability, T/C (compound 0.1 µM) was 117% and 154% and the viability, T/C (compound 0.316 µM) was 143% and 135%. For the same molecule, the viability, T/C (compound 1 µM) was 138%, the viability, T/C (compound 3.16 µM) was 197% and 189% and the viability, T/C (compound 10 µM) was 215% and 179%. For the same molecule, the IC50 (curve of compound) was over 10000 nM.
Work on `CCN1CCN(Cc2ccc(Nc3ncc(F)c(-c4cc(F)c5nc(C)n(C(C)C)c5c4)n3)nc2)CC1` yielded an IC50 [1] of over 1000 nM.
In the case of `COc1c(OCCCN2CCOCC2)ccc2c3n(c(=NC(=O)c4cnc(N)nc4)nc12)CCN3`, the viability, T/C (compound 0.00316 µM) is reported as 102%, the viability, T/C (compound 0.01 µM) is reported as 75.8% and 88.7% and the viability, T/C (compound 0.0316 µM) is reported as 59.6% and 64.5%. For the same molecule, the viability, T/C (compound 0.1 µM) was 48.8% and 42.4%, the viability, T/C (compound 0.316 µM) was 35.9% and 36.7% and the viability, T/C (compound 1 µM) was 33.4% and 31.1%. The IC50 (curve of compound) was 75 nM and 69.6 nM.
For `Cc1nc(NC(=O)N2CCCC2C(N)=O)sc1-c1ccnc(C(C)(C)C(F)(F)F)c1` (stereo unspecified), the viability, T/C (compound 0.0316 µM) was 85.2%, the viability, T/C (compound 0.1 µM) was 79.3% and 90.2% and the viability, T/C (compound 0.316 µM) was 59.3% and 74%. The viability, T/C (compound 1 µM) was 44.5% and 52.8%, the viability, T/C (compound 3.16 µM) was 66.8% and 49.1% and the viability, T/C (compound 10 µM) was 50.2% and 46.2%. The IC50 (curve of compound) was > 10000 nM and 1800 nM.
